Here are results for three compounds from US20260159474A1, “Aminoindane Compounds and Compositions and Methods of Their Therapeutic Use” (Solvonis Therapeutics Ireland Holdings Limited, priority 2021, published 2026).

For data set [1], the target named is T1, P-glycoprotein (P-gp, MDR1) (Homo sapiens, UniProt P08183).
T1 construct: expressed in transfected cells; host or cells: MDCKII-MDR1 (Madin-Darby Canine Kidney clone II)
Description: Bidirectional permeability and P-gp substrate assay in MDCKII-MDR1 cells. Format: in vitro ADME. To be noted: human, MDCK-MDR1, pH 7.4; efflux ratio, MDCKII-MDR1 cells; read-out: MDCKII-MDR1 B-A ratio. The protocol:
(§1) Methods: A bidirectional permeability study was conducted to evaluate the apparent permeability (Papp) of therapeutic compounds. Additionally, the MDCKII-MDR1 cell line (Madin-Darby Canine Kidney clone II cell line heterologously expressing the human P-glycoprotein transporter) and mock cell line MDCKII were used to determine whether a compound acted as a P-gp substrate, in the absence and in the presence of a potent P-gp inhibitor. Test control items (digoxin, metoprolol, and atenolol) and control P-gp inhibitor (GF120918) stock solution were prepared in DMSO. Bidirectional assays (Apical to Basolateral [AB] and Basolateral to Apical [BA]) were run, in both the absence and presence of P-gp inhibitor GF120918 in MDCKII-MDR1 and mock cell line MDCKII, using as transport buffer HBSSH at a pH of 7.4 (n=3).
(§2) Compounds were tested at a single concentration (i.e. at […]) at one time point (i.e. 60 min). Alternative concentrations or time points may also be investigated. As reference compounds, digoxin (P-gp substrate), atenolol (low permeability) and metoprolol (high permeability) were included at a single concentration (e.g., 10 or […]) and at single time point (e.g., 60 min). Digoxin transport was evaluated in two directions (apical-to-basolateral [AB] and basolateral-to-apical [BA]) in the absence and presence of GF120918 or in mock cells, MDCKII (n=3). Atenolol and metoprolol were only tested in the AB direction in absence of P-gp inhibitor GF120918 or in mock cells, MDCKII (n=3). The integrity of the cell monolayer was evaluated after the permeability experiment using the paracellular permeability marker Lucifer yellow (LY) in the apical to basolateral direction in each well.
(§3) MDCKII or MDCKII-MDR1 cells were cultivated in DMEM (high glucose, GlutaMAXTM supplemented with pyruvate, 10% FBS HI and Pen/Strep). Cells were seeded onto microporous PET (Polyethylene Terephthalate) membranes in HTS 96-Multiwell Insert plates at a density of ˜175,000-245,000 cells/cm^2 (25000-35000 cells/well; 50 μL/well) in DMEM medium and incubated for 3-4 days at 37° C.-5% CO2. Medium was changed the day before the experiment.
(§4) Stock solutions of test items were prepared in DMSO at a concentration of 5 or 10 mM and stored at −20° C. until use. The potent P-gp inhibitor, GF120918 (stock solution 10 mM) and the reference controls digoxin, atenolol, metoprolol (stock solutions 3 or 10 mM) were prepared in DMSO and stored at −20° C. until use.
(§5) Donor working solutions of test items and reference controls were prepared at a concentration of 10 or 25 µM, diluting the stock solutions in HBSSH. Receiver working solutions contained transport buffer only. All working solutions were prepared such that the final concentration of DMSO was 1% (v/v). A donor working solution containing LY was also prepared in transport buffer at 100 µM.
(§6) MDCKII and MDCKII-MDR1 cells were preincubated (37° C., 15 to 30 minutes) in receiver working solutions containing transport buffer on apical (A) and basolateral (B) sides. Following pre-incubation, test items and control items (digoxin) transport were measured in two directions (apical to basolateral [AB]) and basolateral to apical [BA]), and these directions were performed in triplicate sets of wells, in both the absence and presence of […] GF120918 or mock MDCKII cells. For [AB] directional transport, 75 μL of donor working solution was added to the A (apical) compartment and 235 μL of receiver working solution was added to the B (basolateral) compartment. For [BA] directional transport, 235 μL donor working solution with test items or reference controls was added to the B compartment and 75 μL receiver working solution was added to the A compartment. Transport of permeability reference controls, atenolol and metoprolol, were measured in one direction (apical to basolateral [AB]) (n=3).
(§7) The cells were incubated (at 37° C., with shaking) for 60 minutes. […]

Data set [2] has as its target T2, human P-glycoprotein transporter (MDCKII-MDR1 cells) (Homo sapiens, UniProt P08183).
T2 construct: expressed in transfected cells; host or cells: MDCKII-MDR1 (Madin-Darby Canine Kidney clone II)
The data set is described as above. Format: in vitro ADME. The conditions noted are these: for Permeability classification: by Papp; for Papp A→B at 60 min: dog, MDCK, read-out: MDCKII Permeability app A > B; for P-gp Substrate?: efflux ratio >2 and reduced with GF120918 or in mock MDCKII cells. The protocol: as §1, §2, §3, §4, §5, §6, §7

The test system of another data set is DAT/SERT. The conditions noted are these: Simmler et al., Br J Pharmacol. 2013; cited from earlier work.
For data set [3] the following is noted: MDMA at doses of 100-125 mg, literature; cited from earlier work.
Data set [4] is described as follows: Rat body temperature after IP administration. To be noted: 200 minutes after injection. In kind it is in vivo, Sprague Dawley rats. The protocol:
Methods and Procedure: This study was conducted in compliance with previously described procedures to assure data integrity, adherence to GLP regulations, and standard preclinical study and surgery procedures. The in vivo microdialysis technique was applied to measure the over-time variations of DA, 5-HT, and NE extracellular (EC) concentrations in conscious, freely-moving Sprague Dawley rats. At the end of each experimental session (200 minutes after injection), body temperature (° C.) of Sprague Dawley rats was monitored using a digital thermometer with a rectal probe.

Setting [5] is: apical to basolateral, pH 7.4, 60 min.

“Also recorded” adds a separate entry of the source.

T2 sequence (P08183 whole entry): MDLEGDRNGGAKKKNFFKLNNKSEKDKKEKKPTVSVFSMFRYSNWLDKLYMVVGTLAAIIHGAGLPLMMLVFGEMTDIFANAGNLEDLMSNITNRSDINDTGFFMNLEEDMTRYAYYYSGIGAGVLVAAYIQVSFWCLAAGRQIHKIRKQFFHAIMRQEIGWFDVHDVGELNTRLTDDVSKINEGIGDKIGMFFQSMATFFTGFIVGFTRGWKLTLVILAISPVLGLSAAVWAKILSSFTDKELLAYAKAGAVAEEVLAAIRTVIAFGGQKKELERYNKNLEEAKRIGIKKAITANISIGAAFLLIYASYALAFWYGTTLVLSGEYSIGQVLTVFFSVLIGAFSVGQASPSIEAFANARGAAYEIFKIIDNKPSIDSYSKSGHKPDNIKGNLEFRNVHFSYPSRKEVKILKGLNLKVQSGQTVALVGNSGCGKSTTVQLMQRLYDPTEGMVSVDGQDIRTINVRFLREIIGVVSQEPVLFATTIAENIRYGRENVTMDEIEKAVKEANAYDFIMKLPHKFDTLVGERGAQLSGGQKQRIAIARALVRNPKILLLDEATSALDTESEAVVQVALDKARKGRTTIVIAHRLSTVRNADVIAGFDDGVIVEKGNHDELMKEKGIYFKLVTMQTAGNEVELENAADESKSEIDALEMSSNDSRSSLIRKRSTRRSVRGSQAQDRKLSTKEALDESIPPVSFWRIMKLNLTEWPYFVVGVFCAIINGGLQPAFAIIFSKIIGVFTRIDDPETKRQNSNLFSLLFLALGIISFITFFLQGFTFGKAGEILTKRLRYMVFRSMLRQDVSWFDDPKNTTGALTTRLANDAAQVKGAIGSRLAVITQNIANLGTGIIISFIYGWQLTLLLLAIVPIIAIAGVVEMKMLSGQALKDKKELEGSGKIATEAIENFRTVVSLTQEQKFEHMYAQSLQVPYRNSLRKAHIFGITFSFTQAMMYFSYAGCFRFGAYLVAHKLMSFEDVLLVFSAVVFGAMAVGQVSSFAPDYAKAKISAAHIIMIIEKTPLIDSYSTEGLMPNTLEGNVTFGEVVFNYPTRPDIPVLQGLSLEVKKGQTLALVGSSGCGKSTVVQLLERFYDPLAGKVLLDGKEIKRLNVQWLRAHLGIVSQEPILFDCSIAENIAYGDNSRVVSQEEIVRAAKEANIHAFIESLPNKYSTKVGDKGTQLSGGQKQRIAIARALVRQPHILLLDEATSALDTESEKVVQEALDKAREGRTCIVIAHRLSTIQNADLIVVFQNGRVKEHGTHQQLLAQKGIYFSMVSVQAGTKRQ
T1 sequence (P08183 whole entry): as above

In the case of `COc1ccc2c(c1)CC(N)C2` (centres unmarked) [MEAI, 5-methoxy-2-aminoindane], in data set [1], the efflux ratio at 60 min came out at 1. Moreover, in data set [2], the Permeability classification entry is listed as “highly permeable” and the “P-gp Substrate?” value is “No”. Further, the Papp A→B at 60 min in data set [2] (setting [5]) was 17.4 ×10⁻⁶ cm/s.

`CNC(C)Cc1ccc2c(c1)OCO2` (centres unmarked) [MDMA]: the DAT/SERT ratio with DAT/SERT is on record as 0.8. Moreover, the “MDCKII Permeability app A > B” value in data set [2] (setting [5]) came to 140 nm/s. Also, in data set [2], the Permeability classification result is on record as “less permeable” and the “P-gp Substrate?” value was “No”. The “MDCKII-MDR1 B-A ratio” value in data set [2] (efflux ratio, MDCKII-MDR1 cells) is given as 1.5. In data set [3], the “increase in blood pressure (diastolic)” value is listed as 14.4-25 mmg and the “increase in heart rate” value is 26-30 bpm. In addition, the “change in rat body temperature (rectal) relative to vehicle” value in data set [4] is 1.6 °C.

In the case of `COC(=O)c1ccc2c(c1)CC(N)C2` (centres unmarked) [CMP-405, 2-aminoindane-5-methylcarboxylate], the efflux ratio at 60 min in data set [1] was 1.1. Besides, in data set [2], the Permeability classification result is listed as “highly permeable” and the “P-gp Substrate?” value is “No”. In data set [2] (setting [5]), the Papp A→B at 60 min came out at 16.2 ×10⁻⁶ cm/s. The “change in rat body temperature (rectal) relative to vehicle” value in data set [4] is on record as “lower than the change observed following administration of MDMA; also recorded: significantly lower than the change in temperature caused by MDMA”.
